Among the data in ChEMBL document CHEMBL3272028, “Some substituted naphthazarins as potential anticancer agents” (1976) are Activity, inhibition of growth and T/C values, retold here.

Structures are written as SMILES. Active and inactive are the calls of the source. The calls are words filed in the database; no cut-off is given here.

For experiment [1], the system named is P388. Kind of experiment: Antitumor activity against mouse P388 cells allografted in mouse. Format: functional, cell-based.
The nature of experiment [2]: Growth inhibition of human 9KB cells at 1.8 ug/ml relative to control. It counts as functional. To be noted: read-out: GI.
The test system of the next experiment is L1210. Kind of experiment: Antitumor activity against mouse L1210 cells allografted in mouse. Format: functional, cell-based.
Experiment [3] deals with P388. Kind of experiment: Antitumor activity against mouse P388 cells allografted in mouse at 400 mg/kg relative to control. Format: functional.
Experiment [4] has as its system P388. Put plainly: Antitumor activity against mouse P388 cells allografted in mouse at 50 mg/kg relative to control. Format: functional.

With `CC(=O)Oc1ccc(OC(C)=O)c2c1C(=O)C=CC2=O`, the outcome in the experiment with P388 [1] and with L1210 was inactive. For the same compound, in experiment [2], the inhibition of growth at 1.8 µg/mL worked out at 50%.
With `CC(=O)Oc1ccc(OC(C)=O)c2c1CC(C)=C(C)C2`, the T/C in the experiment on P388 [3] is 126. In the experiment on L1210, the outcome was inactive.
`CC1=C(C)C(=O)c2c(OC(=O)c3ccccc3)ccc(OC(=O)c3ccccc3)c2C1=O` showed a T/C in the experiment with P388 [4] of 128. In addition, the result with L1210 was inactive.
